This is an account of results in US4728650A, “3,4-dihydrobenzopyran derivatives and medicinal uses thereof” (Kuraray Co., Ltd., priority 1985, dated 1988).

The term inhibition in vivo denotes the relative decrease from the control value, in per cent.

Test [1] can be described thus: Hydrochloric acid-ethanol-induced ulcer in rats. Format: in vivo, Wistar rats (male). How it is done: Male Wistar rats (body weights, 170-210 g) were used in groups of 6 to 8 animals. Indomethacin, 20 mg/kg body weight, was injected subcutaneously to rats which had been deprived of food for 24 hours. After 7 hours, the stomach was excised under ether anesthesia. A 10% aqueous solution of formaldehyde was infused into the stomach until the stomach was inflated and, then, the stomach was immersed in a 10% aqueous solution of formaldehyde for 10 minutes for fixation of the tissue. After fixation, an incision was made along the greater curvature and the length of ulcers occurring in the glandular portion of the stomach was measured. The total length of ulcers occurring in a rat was taken as an ulcer index. Each test compound was orally administered, as suspended in a gum arabic solution in concentration of 5%, to rats 10 minutes before subcutaneous injection of indomethacin. Male Wistar rats (body weights, 160-190 g) were used in groups of 6 to 8 animals. One milliliter of a 60% aqueous solution of ethanol containing 150 mM hydrochloric acid was administered orally to rats which had been deprived of food for 24 hours. After one hour, the stomach was excised under ether anesthesia. In a manner similar to that described in study for indomethacin-induced ulcer, the ulcer index was determined. Each test compound was orally administered, as suspended in a gum arabic solution in concentration of 5%, to rats 1 hour before administration of hydrochloric acid-ethanol.

Test [2] is described as follows: Expectorant action: tracheal secretion of fluorescein sodium in rats. Format: in vivo, Wistar rats (male). As to conditions: 50 mg/kg oral. How it is done: Male Wistar rats (body weights, 280-320 g) were used in groups of 7 animals. Each test compound was orally administered in dose of 50 mg/kg body weight to rats. Immediately after administration, 0.3 ml/100 g (body weight of rat) of a 1% aqueous solution of fluorescein sodium was injected into the caudal vein. One hour after administration of the test compound, pentobarbital sodium 100 mg/kg (body weight of rat) was injected intraperitoneally so that deep anesthesia might cause the rat to die. Then, the trachea was exposed and an incision was made in the trachea. A sonde was inserted thereinto and ligation was made. To the sonde was connected a syringe containing 10 ml of a 5% solution of sodium hydrogen carbonate kept at 37° C. and 4 ml of the solution of sodium hydrogen carbonate was injected into the lung. After 5 minutes, the fluid in the lung was removed. After this procedure of injection and removal was repeated three times, the fluid removed from the lung was filtered and the filtrate was made up with water to make 20 ml. The intensity of fluroescence was determined at the excitation wave length of 491 nm and the fluorescence wave length of 510 nm using a spectrophotometer (HITACHI model 650-10, Hitachi, Ltd.). The amount of fluorescein sodium secreted into the trachea was estimated from the intensity of fluorescence. Each test compound was administered as suspended in a gum arabic solution in concentration of 5%.

The mark [3] stands for this setting: Rattus norvegicus, po, 1 h, Table 8, 50 mg/kg p.o.
Where [4] appears, read: Table 8, 50 mg/kg p.o., control 9.69 ± 1.68.
The mark [5] stands for this setting: Rattus norvegicus, po, 1 h, Table 7, 12.5 mg/kg p.o.
Setting [6] is: Rattus norvegicus, po, 1 h, Table 7, 25 mg/kg p.o.
[7] abbreviates: Table 6, 25 mg/kg p.o., control 9.69 ± 1.68.
The mark [8] stands for this setting: Rattus norvegicus, po, 1 h, Table 12, 25 mg/kg p.o.
Where [9] appears, read: Rattus norvegicus, po, 1 h, Table 7, 50 mg/kg p.o.
[10] abbreviates: Rattus norvegicus, po, 1 h, Table 12, 50 mg/kg p.o.
Setting [11] is: Rattus norvegicus, po, 1 h, Table 12, 100 mg/kg p.o.
[12] abbreviates: Table 12, 25 mg/kg p.o., control 9.93 ± 0.91.
Where [13] appears, read: Table 12, 50 mg/kg p.o., control 9.93 ± 0.91.
The mark [14] stands for this setting: Table 12, 100 mg/kg p.o., control 9.93 ± 0.91.
[15] abbreviates: Table 5, 25 mg/kg p.o., control 11.09 ± 1.49.
Setting [16] is: Table 5, 50 mg/kg p.o., control 11.09 ± 1.49.

As for `COc1c(C)c(C)c2c(c1C)CCC(C)(CCN1CCN(CC=C(C)C)CC1)O2` (stereo not shown) [Compound (13), 3,4-Dihydro-6-methoxy-2-[2-[4-(3-methyl-2-butenyl)piperazin-1-yl]ethyl]-2,5,7,8-tetramethyl-2H-benzopyran], in test [1] (setting [3]), at 50 mg/kg the inhibition in vivo was 100%. The “Ulcer index (mean ± S.E.)” value in test [1] (setting [4]) came to 0.00 ± 0.00 mm.

`COc1ccc2c(c1)OC(C)(CC(=O)NC(=N)N)CC2` (stereo not shown) [Compound (7), N-(3,4-Dihydro-7-methoxy-2-methyl-2H-benzopyran-2-yl)acetylguanidine]: in test [1] (setting [5]), testing at 12.5 mg/kg gave an inhibition in vivo of 71.9%. Also, testing at 25 mg/kg in test [1] (setting [6]) gave an inhibition in vivo of 84.2%. In addition, the “Ulcer index (mean ± S.E.)” value in test [1] (Table 5, 12.5 mg/kg p.o., control 11.09 ± 1.49) stood at 3.12 ± 0.66 mm; in test [1] (setting [7]), 1.53 ± 0.66 mm.

On to `COc1c(C)c(C)c2c(c1C)CCC(C)(CCN1CCN(C(=O)CCC=C(C)CCC=C(C)CCC=C(C)C)CC1)O2` (stereo not shown) [Compound (24), 1-[2-(3,4-Dihydro-6-methoxy-2,5,7,8-tetramethyl-2H-benzopyran-2-yl)ethyl]-4-(5,9,13-trimethyl-4,8,12-tetradecatrienoyl)piperazine], for which the “Secretory amount (mean ± S.E.)” value in test [2] (Table 14, control 1.60 ± 0.18) is 2.74 ± 0.22 μg/100 g (body weight of rat)/.

As for `CC(C)=CCOc1ccc(/C=C/C(=O)c2ccc(OCC=C(C)C)cc2OCC(=O)O)cc1` [Sofalcone, 2'-carboxymethoxy-4,4'-bis(3-methyl-2-butenyloxy)calcon, reference compound], the inhibition in vivo at 25 mg/kg in test [1] (setting [8]) and in test [1] (setting [6]) was 25.8% each time. Besides, the inhibition in vivo at 50 mg/kg in test [1] (setting [9]) and in test [1] (setting [10]) was 38.3% in each case. For the same compound, the inhibition in vivo at 100 mg/kg in test [1] (setting [11]) was found to be 39.8%. In addition, at 300 mg/kg the inhibition in vivo in test [1] (Rattus norvegicus, po, 1 h, Table 12, 300 mg/kg p.o.) was 100%. Further, the “Ulcer index (mean ± S.E.)” value in test [1] (setting [12]) is given as 7.37 ± 0.54 mm; in test [1] (setting [13]) it was 6.13 ± 0.91 mm; in test [1] (setting [14]), 5.98 ± 1.04 mm; in test [1] (Table 12, 300 mg/kg p.o., control 9.93 ± 0.91), 0.00 ± 0.00 mm.

For `COc1ccc(C(=O)N2CCN(CCC3(C)CCc4cc(Cl)ccc4O3)CC2)cc1` (stereo not shown) [Compound (26), 1-[2-(6-Chloro-3,4-dihydro-2-methyl-2H-benzopyran-2-yl)ethyl]-4-(4-methoxybenzoyl)piperazine], the “Secretory amount (mean ± S.E.)” value in test [2] (Table 15, control 5.20 ± 0.78) is on record as 9.61 ± 0.83 μg/100 g (body weight of rat)/.

`COc1c(C)c(C)c2c(c1C)CCC(C)(CCC(=O)NC(=N)N)O2` (stereo not shown) [Compound (5)] registered an inhibition in vivo at 25 mg/kg in test [1] (setting [6]) of 100%. For the same compound, in test [1] (setting [15]), the “Ulcer index (mean ± S.E.)” value is given as 0.00 ± 0.00 mm.

As to `COc1c(C)c(C)c2c(c1C)CCC(C)(CCN1CCN(CC=C(C)CCC=C(C)C)CC1)O2` (stereo not shown) [Compound (14), 3,4-Dihydro-6-methoxy-2-[2-[4-(3,7-dimethyl-2,6-octadienyl)piperazin-1-yl]ethyl]-2,5,7,8-tetramethyl-2H-benzopyran], at 50 mg/kg the inhibition in vivo in test [1] (setting [3]) was 100%. In addition, in test [1] (setting [4]), the “Ulcer index (mean ± S.E.)” value came to 0.00 ± 0.00 mm.

Regarding `CCOc1c(C)c(C)c2c(c1C)CCC(C)(CC(=O)NC(=N)N)O2` (stereo not shown) [Compound (2), N-(3,4-Dihydro-6-ethoxy-2,5,7,8-tetramethyl-2H-benzopyran-2-yl)acetylguanidine], at 25 mg/kg the inhibition in vivo in test [1] (setting [6]) was 89%. The “Ulcer index (mean ± S.E.)” value in test [1] (setting [15]) is given as 0.50 ± 0.34 mm.

`CC(C)=CCOc1c(C)c(C)c2c(c1C)CCC(C)(CC(=O)NC(=N)N)O2` (stereo not shown) [Compound (3), N-(3,4-Dihydro-6-prenyloxy-2,5,7,8-tetramethyl-2H-benzopyran-2-yl)acetylguanidine] had an inhibition in vivo at 25 mg/kg in test [1] (setting [6]) of 98.7%. For the same compound, in test [1] (setting [15]), the “Ulcer index (mean ± S.E.)” value worked out at 0.14 ± 0.14 mm.

Regarding `CC(=O)CCC=C(C)CC/C=C(\C)CC/C=C(\C)CCC=C(C)C` [Teprenone, reference compound], the inhibition in vivo at 25 mg/kg in test [1] (setting [8]) and in test [1] (setting [6]) was 78.4% throughout. In test [1] (setting [5]), the inhibition in vivo at 12.5 mg/kg turned out to be 33.8%. Moreover, the inhibition in vivo at 50 mg/kg in test [1] (setting [10]) worked out at 91.4%. Also, the inhibition in vivo at 100 mg/kg in test [1] (setting [11]) amounted to 96.3%. For the same compound, the entries for the “Ulcer index (mean ± S.E.)” value in test [1] (setting [12]), in test [1] (setting [13]) and in test [1] (setting [14]) were 2.15 ± 1.26 mm, 0.85 ± 0.61 mm and 0.37 ± 0.37 mm, respectively.

With `COc1c(C)c(C)c2c(c1C)CCC(C)(CCN1CCN(CC=C(C)CCC=C(C)CCC=C(C)C)CC1)O2` (stereo not shown) [Compound (15), 3,4-Dihydro-6-methoxy-2-[2-[4-(3,7,11-trimethyl-2,6,10-dodecatrienyl)piperazin-1-yl]ethyl]-2,5,7,8-tetramethyl-2H-benzopyran], testing at 50 mg/kg in test [1] (setting [3]) gave an inhibition in vivo of 100%. Also, the “Ulcer index (mean ± S.E.)” value in test [1] (setting [4]) was 0.00 ± 0.00 mm.

Regarding `COc1ccc2c(c1)CCC(C)(CC(=O)NC(=N)N)O2` (stereo not shown) [Compound (6), N-(3,4-Dihydro-6-methoxy-2-methyl-2H-benzopyran-2-yl)acetylguanidine], the inhibition in vivo at 25 mg/kg in test [1] (setting [6]) was found to be 79.1%. Moreover, the “Ulcer index (mean ± S.E.)” value in test [1] (setting [7]) is given as 2.03 ± 1.04 mm.

With `CNC(=N)NCCC1(C)CCc2c(C)c(OC)c(C)c(C)c2O1` (stereo not shown) [Compound (11), N-[2-(3,4-Dihydro-6-methoxy-2,5,7,8-tetramethyl-2H-benzopyran-2-yl)ethyl]-N'-methylguanidine], the inhibition in vivo at 50 mg/kg in test [1] (setting [9]) was 98.2%. Besides, the “Ulcer index (mean ± S.E.)” value in test [1] (setting [16]) was determined as 0.20 ± 0.14 mm.

In turn, `CNC(=S)NCCC1(C)CCc2c(C)c(OC)c(C)c(C)c2O1` (stereo not shown) [Compound (9), N-[2-(3,4-Dihydro-6-methoxy-2,5,7,8-tetramethyl-2H-benzopyran-2-yl)ethyl]-N'-methylthiourea] registered an inhibition in vivo at 25 mg/kg in test [1] (setting [6]) of 47.3%. The inhibition in vivo at 50 mg/kg in test [1] (setting [9]) was 95.4%. Also, the “Ulcer index (mean ± S.E.)” value in test [1] (setting [15]) is 5.84 ± 0.75 mm.

The compound `COc1c(C)c(C)c2c(c1C)CCC(C)(C(=O)NC(=N)N)O2` (stereo not shown) [Compound (4), N-(3,4-Dihydro-6-methoxy-2,5,7,8-tetramethyl-2H-benzopyran-2-yl)carbonylguanidine] came in with an inhibition in vivo at 25 mg/kg in test [1] (setting [6]) of 100%. For the same compound, the “Ulcer index (mean ± S.E.)” value in test [1] (setting [7]) worked out at 0.00 ± 0.00 mm.

The compound `COc1cc(CN2CCN(CCC3(C)CCc4c(C)c(OC)c(C)c(C)c4O3)CC2)cc(OC)c1OC` (stereo not shown) [Compound (18), 3,4-Dihydro-6-methoxy-2-[2-[4-(3,4,5-trimethoxybenzyl)piperazin-1-yl]ethyl]-2,5,7,8-tetramethyl-2H-benzopyran] showed an inhibition in vivo at 50 mg/kg in test [1] (Rattus norvegicus, po, 1 h, Table 10, 50 mg/kg p.o.) of 83.2%. In addition, the “Ulcer index (mean ± S.E.)” value in test [1] (Table 10, 50 mg/kg p.o., control 5.98 ± 1.96) amounted to 0.98 ± 0.98 mm.

`CC1(CC(=O)NC(=N)N)CCc2cc(Cl)ccc2O1` (stereo not shown) [Compound (8), N-(3,4-Dihydro-6-chloro-2-methyl-2H-benzopyran-2-yl)acetylguanidine] gave an inhibition in vivo at 25 mg/kg in test [1] (setting [6]) of 100%. Also, the “Ulcer index (mean ± S.E.)” value in test [1] (setting [7]) is 0.00 ± 0.00 mm.

On to `COc1c(C)c(C)c2c(c1C)CCC(C)(CCN1CCNCC1)O2` (stereo not shown) [Compound (12), 3,4-Dihydro-6-methoxy-2-[2-(piperazin-1-yl)ethyl]-2,5,7,8-tetramethyl-2H-benzopyran], for which the inhibition in vivo at 25 mg/kg in test [1] (Rattus norvegicus, po, 1 h, Table 8, 25 mg/kg p.o.) was found to be 98.7%. Moreover, in test [1] (setting [3]), the inhibition in vivo at 50 mg/kg came out at 100%. The “Ulcer index (mean ± S.E.)” value amounted to 0.13 ± 0.13 mm in test [1] (Table 8, 25 mg/kg p.o., control 9.69 ± 1.68) and 0.00 ± 0.00 mm in test [1] (setting [4]).

In test [1] (setting [9]), `COc1c(C)c(C)c2c(c1C)CCC(C)(CCNC(=N)N)O2` (stereo not shown) [Compound (10), N-[2-(3,4-Dihydro-6-methoxy-2,5,7,8-tetramethyl-2H-benzopyran-2-yl)ethyl]guanidine] showed an inhibition in vivo at 50 mg/kg of 72.6%. For the same compound, the “Ulcer index (mean ± S.E.)” value in test [1] (setting [16]) was determined as 3.04 ± 1.33 mm.
